From PubChem BioAssay AID464 (The Scripps Research Institute Molecular Screening Center, 2006)
The source made the active and inactive calls.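 The calls were made as follows: active = Compounds that kill half the cells at a concentration of 5 micromolar or below, from the fitted or estimated CC50; inactive = CC50 above 5 micromolar.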

tested on: Jurkat E6.1 viability, ATP luminescence, 48 h; test: Jurkat E6.1 cell cytotoxicity, CC50 determination, dose response, cytotoxicity control, ATP luminescence, 48 h, 60K MLSMR (AID 464)

Compound	CC50
CCCNS(=O)(=O)c1ccc(OCC(=O)N2CCN(Cc3ccc4c(c3)OCO4)CC2)cc1	7.96 µM (inactive)
CC(=O)Nc1ccccc1OCC(=O)c1cc(C)n(Cc2cccs2)c1C	0.16 µM
Nc1ccc(N2CCCCCC2)cc1	26.3 µM (inactive)
N#CC1=C(N)Oc2cc(N)ccc2C1C1CCCCC1 (centres undefined)	2.49 µM
COc1ccc2c(c1)sc1nc(-c3ccccc3)cn12	0.75 µM
CN(C)c1ccccc1C(=O)c1ccccc1N(C)C	0.743 µM
Cc1nn(-c2ccccc2)c(C)c1C(=O)OCC(=O)c1c(N)n(CC(C)C)c(=O)n(C)c1=O	9.53 µM (inactive)
CCCn1nc(C(=O)N2CC(=O)Nc3ccccc32)c2ccccc2c1=O	2.81 µM
CCOC(=O)CCS(=O)(=O)c1nc(-c2ccccc2)cc(C(F)(F)F)n1	4.58 µM
CCOC(=O)COc1cccc2c(=O)n(CC(=O)NCc3ccc4c(c3)OCO4)ccc12	5.51 µM (inactive)
CC(C)Cn1c(N)c(C(=O)CSc2ccc3c(c2)OCCO3)c(=O)n(C)c1=O	> 40 µM (inactive)
O=C(Nc1ccc2c(c1)nc1n2CCCCC1)c1cc(S(=O)(=O)N2CCOCC2)ccc1Cl	21.1 µM (inactive)
Brc1ccc(C2=Nn3c(nnc3-c3n[nH]c4c3CCC4)SC2)cc1	0.313 µM
O=C(c1ccccc1-c1ccccc1)N1CCN(c2ccccn2)CC1	1.55 µM
O=C(Cc1cccs1)Nc1nc2c(s1)CCCC2	> 40 µM (inactive)
COc1ccccc1-n1nnnc1S(=O)(=O)Cc1ccc(Cl)cc1	3.3 µM
Cc1ccc2[nH]c(-c3ccccc3)cc(=O)c2c1	0.324 µM
COc1ccc(Nc2oc(-c3ccccc3Cl)nc2C#N)cc1	1.42 µM
Cc1cc(C(=O)CSc2nnc(NCc3ccccc3)s2)c(C)n1C	12.9 µM (inactive)
CCOC(=O)c1c(COc2ccccc2)oc2ccc(O)cc12	> 40 µM (inactive)
Cc1nc2ccccn2c1-c1csc(NCc2ccco2)n1	> 40 µM (inactive)
O=C(Nc1nc2ccc(S(=O)(=O)N3CCCC3)cc2s1)C1CCCCC1	3.73 µM
CCCNc1nc2c(c(=O)n(C)c(=O)n2C)n1Cc1cccc(C)c1	10.8 µM (inactive)
Clc1ccc(C2=Nn3c(nnc3-c3n[nH]c4c3CCC4)SC2)cc1	1.64 µM
CCOc1ccc2nc(-c3ccccc3)[nH]c2c1	3.01 µM
CCC(C)c1ccc(NC(=O)C2CCCN(c3ncccn3)C2)cc1 (centres undefined)	10.4 µM (inactive)
CC(=O)N1CCc2c(sc(NC(=O)c3ccc4c(c3)OCCO4)c2C#N)C1	2.6 µM

Compound	CC50
Cc1ccc2c(c1)[nH]c1c(N3CCN(Cc4ccccc4)CC3)ncnc12	> 40 µM (inactive)
CCCCCCn1c2c(c(=N)c3c1CCC3)CCC2	0.482 µM
CC(C)OCCCNc1ncnc2c1[nH]c1ccccc12	4.91 µM
O=C(Nc1ccccc1C(F)(F)F)c1cc(-c2ccccc2O)on1	> 40 µM (inactive)
Cn1nnnc1SCC(=O)Nc1ccc(Oc2ccc(Cl)cc2)cc1	36.8 µM (inactive)
Cn1ncc2c(Nc3ccc(-c4ccccc4)cc3)ncnc21	> 40 µM (inactive)
CCOC(=O)c1c(C)c(C(=O)Nc2ccc(N(C)C)cc2)c(C)n1CC	5.84 µM (inactive)
Cc1ccc2cc(CN(Cc3ccco3)C(=O)c3cccs3)c(=O)[nH]c2c1	2.6 µM
COc1ccc(N2CCn3c2nc2c3c(=O)n(CCCc3ccccc3)c(=O)n2C)c(OC)c1	> 40 µM (inactive)
COc1ccc(C)c(Cn2c(-c3nonc3N)nc3ccccc32)c1	1.97 µM
c1ccc(C(Cc2nc(-c3ccncc3)no2)c2ccccc2)cc1	8.52 µM (inactive)
COc1ccc(OC)c(C(C)NC(=O)c2ccco2)c1 (centres undefined)	6.24 µM (inactive)
On1onc2c3cc(-c4ccccc4)nc3ccc21	3.9 µM
CCOC(=O)c1c(-c2ccc(C)cc2C)csc1NC(=O)CSc1nnnn1C	35 µM (inactive)
COc1ccc(CCNc2ncnc3c2oc2ccccc23)cc1OC	2.72 µM
CCOc1cc(C(=O)Nc2cnccn2)cc(OCC)c1OCC	6.16 µM (inactive)
O=S(=O)(NCc1ccncc1)c1ccc(Br)s1	1 µM
COC(=O)Nc1ccc(S(=O)(=O)N2CCCc3ccccc32)cc1	1.06 µM
Nc1c(C(=O)NCc2ccccc2)nnn1Cc1cccc(Cl)c1	4.49 µM
CN(C)c1ccc2c(c1)OC(N)=C(C#N)C2c1cccc(F)c1 (centres undefined)	0.106 µM
CCOC(=O)N1CCN(C(=O)C2CCCN(Cc3nc(-c4ccc(Cl)cc4)oc3C)C2)CC1 (centres undefined)	4.64 µM
Cc1ccnc(NC(=O)CCCOc2cc(=O)n(C)c3ccccc23)c1	5.58 µM (inactive)
O=S(=O)(CCSc1ccccn1)c1nc2ccccc2s1	11.8 µM (inactive)
COc1ccc(N(CC(=O)Nc2cc(Cl)ccc2OC)S(=O)(=O)c2c(C)noc2C)cc1	2.97 µM
CCOC(=O)N1CCN(c2c(F)cc3[nH]c(=S)[nH]c3c2Br)CC1	> 4.4 µM (inactive)
Cc1cccc(Cn2c(=O)n(CCCC(=O)NCc3ccco3)c(=O)c3ccccc32)c1	5.14 µM (inactive)
Cc1cc(NC(=O)CSc2nc3ccccc3c(=O)n2C2CCCC2)no1	0.469 µM
